Test results as given in patent US20090061005A1, “Paliperidone Polymorphs” (ACTAVIS GROUP PTC EHF, priority 2007, published 2009).
Where “and” joins values, the source holds several entries; their conditions need not be identical. Equal entries are not always repeated.

Tests used:
[1] = Water (moisture) content of Form A2 by TGA; type: physicochemical
Method: Thermogravimetric analysis (TGA) was performed with a NETZSCH STA 409C/CD instrument. The term “water content” refers to the content of water based upon the Loss on Drying method as described in Pharmacopeial Forum, Vol. 24, No. 1, page 5438 (January-February 1998). The calculation of water content is based upon the percent of weight that is lost by drying. For Form A2 the term “water content” refers to the content of water based upon a TGA measurement.

[2] = Extended drying of Form A2 under vacuum (retention of hydrate water); type: physicochemical; conditions: drying for 12 hours at about 80° C. under vacuum

- water content ([1]; Form A2 obtained by the process, stable and consistently reproducible): 2.5-4 % w/w
- Moisture content ([1]; isolated solid after drying under high vacuum at 60-70° C. for about 12 hours): 4 % w/w and 2.7 % w/w
- removal of moisture on extended drying [2]: moisture could not be removed
Structure (SMILES): Cc1nc2n(c(=O)c1CCN1CCC(c3noc4cc(F)ccc34)CC1)CCCC2O (racemic) [Form A2, (±)-3-[2-[4-(6-fluoro-1,2-benzisoxazol-3-yl)-1-piperidinyl]ethyl]-6,7,8,9-tetrahydro-9-hydroxy-2-methyl-4H-pyrido[1,2-a]pyrimidin-4-one]
